{
  "source": "patent US20130005698A1",
  "about": "“PHARMACEUTICAL FOR PREVENTING OR TREATING AN INNER EAR DISORDER” (University of Tsukuba, priority 2010, published 2013)",
  "key": {"[1]": {"system": "outer hair cells of the organ of Corti", "test": "Gentamicin-induced loss of outer hair cells model (cultured organ of Corti)", "format": "cell-based, SD rats", "details": "48 hours culture; for loss rate of gentamicin-induced outer hair cells loss: control 50%", "protocol": "After excision of the cochlea from SD rats of 3-5 days old, lateral walls were removed, and then the basal turn of the organ of Corti was extracted. The organ of Corti was incubated overnight, and then cultured in culture solutions containing gentamicin ([…]) and fidarestat at different concentrations (0, 0.05, 0.1, 0.2, 0.5, 1, and 2 μM) for 48 hours. After culturing, the organ of corti was fixed with 4% paraformaldehyde. The culture solution was a Dulbecco's modified eagles medium (DMEM solution) containing 10% fetal bovine serum, HEPES ([…]), and penicillin G ([…]), and the organ was cultured at 37° C., 5% CO2, at a humidity of 95%."}, "[2]": {"system": "high-level noise exposure mice", "test": "Evaluation of inner ear disorders in high-level noise exposure mice models (ABR threshold, cochlear hair cell loss)", "format": "in vivo, B6 mice", "details": "for effect on increase of the auditory brainstem response (ABR) threshold caused by exposure to high-level noise: one week and two weeks after exposure", "protocol": "The test was carried out using high-level noise exposure mice. […] The auditory brainstem response (ABR) threshold was measured immediately before the exposure to high-level noise (initial value). At 1 week and 2 weeks after the exposure for 4 hours, the ABR was measured. For the prevention test, after measuring the ABR threshold at 2 weeks after, the inner ears were excised and fixed so as to allow pathological assessment of the loss of two types of hair cells, or inner and outer hair cells within the cochlea. The pathological assessment of the hair cell loss was carried out on the inner hair cells (one line of inner hair cells is represented by IHC) and outer hair cells (three lines of outer hair cells are represented by OHC 1, 2, and 3 from the inside to outside). The verification was carried out by analysis of variance (Fisher's test as post-hoc test). The mice were divided into two groups: a group exposed to high-level noise (control group, n=10), and a group exposed to high-level noise and administrated with fidarestat at a dose of 32 mg/kg/day (fidarestat-administrated group, n=10). The ABR and pathological assessment were carried out in 10 and 5 mice of each group, respectively. Fidarestat was administered mixed with the feed during the period from two days before to two weeks after the exposure to high-level noise. The mice were divided into five groups: a group exposed to high-level noise (control group, n=6), two group exposed to high-level noise and administrated with fidarestat at doses of 8 mg/kg/day or 32 mg/kg/day (fidarestat-administrated groups, n=6), a group exposed to high-level noise, and administrated with prednisolone at a dose of 1 mg/kg/day (prednisolone-administrated group, n=6), and a group exposed to high-level noise, and administrated of combination with prednisolone at a dose of 1 mg/kg/day and fidarestat at a dose of 32 mg/kg/day (combination use group, n=6). The ABR was carried out in 6 mice of each group. Fidarestat was administered mixed with the feed during the period immediately after to two weeks after the exposure to high-level noise. Prednisolone was orally administered immediately after the exposure to high-level noise."}},
  "data": [
    {"smiles": "NC(=O)[C@@H]1C[C@]2(NC(=O)NC2=O)c2cc(F)ccc2O1", "note": "[fidarestat, (2S,4S)-6-fluoro-2′,5′-dioxospiro[chroman-4,4′-imidazolidine]-2-carboxamide]", "values": [
      {"measurement": "loss rate of gentamicin-induced outer hair cells loss", "setting": "[1]; fidarestat 0.1 μM", "value": "significantly reduced"},
      {"measurement": "outer hair cells survival", "setting": "[1]; fidarestat 0.5 μM or more", "value": 75, "unit": "%"},
      {"measurement": "loss rate of gentamicin-induced outer hair cells loss", "setting": "[1]; fidarestat 0.5 μM or more", "value": 25, "unit": "%"},
      {"measurement": "therapeutic effect on ABR threshold increase compared to prednisolone-administrated group", "setting": "[2]; fidarestat 32 mg/kg/day vs prednisolone 1 mg/kg/day", "value": "equivalent effect"},
      {"measurement": "effect on increase of the loss rate of cochlear outer hair cells", "setting": "[2]; prophylactic 32 mg/kg/day, two weeks after exposure to high-level noise", "value": "significantly inhibited"},
      {"measurement": "effect on increase of the auditory brainstem response (ABR) threshold caused by exposure to high-level noise", "setting": "[2]; prophylactic administration, 32 mg/kg/day mixed with feed from two days before to two weeks after exposure", "value": "significantly inhibited"},
      {"measurement": "effect on increase of the auditory brainstem response (ABR) threshold caused by exposure to high-level noise", "setting": "[2]; therapeutic administration, mixed with feed from immediately after to two weeks after exposure", "value": "significantly inhibited"}
    ]}
  ]
}
